Laboratory results taken from the supplement of paper PMC10307832.

Columns and labels:
Assay in all cases: relative viability (nuclei count vs DMSO), 5 days (fraction); higher = more cells survive
Etoposide + Pemetrexed = compound: COc1cc([C@@H]2c3cc4c(cc3[C@@H](O[C@@H]3O[C@@H]5CO[C@@H](C)O[C@H]5[C@H](O)[C@H]3O)[C@H]3COC(=O)[C@H]23)OCO4)cc(OC)c1O [Etoposide] + Nc1nc2[nH]cc(CCc3ccc(C(=O)N[C@@H](CCC(=O)O)C(=O)O)cc3)c2c(=O)[nH]1 [Pemetrexed] (partner 0.2 µM)
In short: (§1)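 Nuclei were stained with Hoechst during a one-step fixation (final 0.05% Triton X-100, 1% formaldehyde, 1 ug/ml Hoechst) carried out 5 days after dosing, then counted on 4× images. The cells, lung cancer lines in 1536-well plates, had been dosed by pin tool the day after seeding with one drug alone or a fixed anchor-drug dose plus five library-drug doses (not always all listed) in √10 steps. Relative viability is the nuclei count in treated wells divided by that in vehicle wells, and each value is the median of duplicate plates.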

Bleomycin + OSI-027 = compound: CC1=C(N=C(N=C1N)[C@H](CC(=O)N)NC[C@@H](C(=O)N)N)C(=O)N[C@@H]([C@H](C2=CN=CN2)OC3C(C(C(C(O3)CO)O)O)OC4C(C(C(C(O4)CO)O)OC(=O)N)O)C(=O)N[C@H](C)[C@H]([C@H](C)C(=O)N[C@@H]([C@@H](C)O)C(=O)NCCC5=NC(=CS5)C6=NC(=CS6)C(=O)NCCC[S+](C)C)O [Bleomycin] + COc1cccc2cc(-c3nc([C@H]4CC[C@H](C(=O)O)CC4)n4ncnc(N)c34)[nH]c12 [OSI-027] (partner 0.5 µM); conditions: main component drawn
In short: as §1

Etoposide = compound: COc1cc([C@@H]2c3cc4c(cc3[C@@H](O[C@@H]3O[C@@H]5CO[C@@H](C)O[C@H]5[C@H](O)[C@H]3O)[C@H]3COC(=O)[C@H]23)OCO4)cc(OC)c1O [Etoposide]
In short: (§2)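 Five library-drug doses spaced by √10 were pinned onto vehicle-anchored 1536-well plates of lung cancer cell lines that had been kept overnight at 37 °C. Cells went 5 days without medium change, then were fixed, permeabilised and Hoechst-stained together, imaged at 4× and counted by MetaXpress. Viability is the ratio of treated-well to vehicle-well nuclei, taken as a median over plates. Plates required control CV below 25% and at least one doubling.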

Bleomycin = compound: CC1=C(N=C(N=C1N)[C@H](CC(=O)N)NC[C@@H](C(=O)N)N)C(=O)N[C@@H]([C@H](C2=CN=CN2)OC3C(C(C(C(O3)CO)O)O)OC4C(C(C(C(O4)CO)O)OC(=O)N)O)C(=O)N[C@H](C)[C@H]([C@H](C)C(=O)N[C@@H]([C@@H](C)O)C(=O)NCCC5=NC(=CS5)C6=NC(=CS6)C(=O)NCCC[S+](C)C)O [Bleomycin]; conditions: main component drawn
In short: as §2

| Cell Line | relative viability (Etoposide + Pemetrexed; first compound 0.01 µM) | relative viability (Etoposide + Pemetrexed; first compound 0.03162 µM) | relative viability (Etoposide + Pemetrexed; first compound 0.1 µM) | relative viability (Etoposide + Pemetrexed; first compound 0.3162 µM) | relative viability (Etoposide + Pemetrexed; first compound 1 µM) | relative viability (Bleomycin + OSI-027; first compound 0.01 µM) | relative viability (Bleomycin + OSI-027; first compound 0.03162 µM) | relative viability (Bleomycin + OSI-027; first compound 0.1 µM) | relative viability (Bleomycin + OSI-027; first compound 0.3162 µM) | relative viability (Bleomycin + OSI-027; first compound 1 µM) | relative viability (Etoposide; 0.01 µM) | relative viability (Etoposide; 0.03162 µM) | relative viability (Etoposide; 0.1 µM) | relative viability (Etoposide; 0.3162 µM) | relative viability (Etoposide; 1 µM) | relative viability (Bleomycin; 0.01 µM) | relative viability (Bleomycin; 0.03162 µM) | relative viability (Bleomycin; 0.1 µM) | relative viability (Bleomycin; 0.3162 µM) | relative viability (Bleomycin; 1 µM) |
| --- | --- | --- | --- | --- | --- | --- | --- | --- | --- | --- | --- | --- | --- | --- | --- | --- | --- | --- | --- | --- |
| NCI-H2347 | 0.454 | 0.487 | 0.401 | 0.386 | 0.383 | 0.338 | 0.505 | 0.373 | 0.199 | 0.303 | 1 | 1.01 | 0.733 | 0.541 | 0.45 | 0.915 | 1.03 | 0.918 | 0.461 | 0.558 |
| NCI-H2405 | 1.07 | 1.14 | 0.846 | 0.935 | 0.365 | 0.617 | 0.596 | 0.567 | 0.477 | 0.346 | 1.04 | 1.09 | 0.772 | 0.835 | 0.47 | 0.884 | 0.969 | 0.918 | 0.569 | 0.394 |
| NCI-H3122 | 0.21 | 0.207 | 0.206 | 0.19 | 0.179 | 0.917 | 1.03 | 0.76 | 0.262 | 0.261 | 1 | 0.995 | 0.983 | 0.854 | 0.333 | 1 | 0.993 | 0.928 | 0.528 | 0.358 |
| PC-3 [JPC-3] | 1.1 | 1.23 | 1.09 | 0.977 | 0.706 | 0.687 | 0.789 | 0.648 | 0.506 | 0.41 | 1.03 | 1.1 | 1.07 | 0.989 | 0.837 | 1.01 | 1.01 | 0.939 | 0.73 | 0.535 |
| PC-14 | 0.13 | 0.141 | 0.168 | 0.121 | 0.106 | 0.439 | 0.435 | 0.114 | 0.0634 | 0.0557 | 0.996 | 1.08 | 0.933 | 0.782 | 0.441 | 0.656 | 0.612 | 0.286 | 0.097 | 0.057 |
| RERF-LC-KJ | 0.454 | 0.507 | 0.48 | 0.434 | 0.445 | 0.378 | 0.364 | 0.314 | 0.244 | 0.239 | 0.846 | 1.06 | 0.861 | 0.873 | 0.653 | 0.694 | 0.675 | 0.591 | 0.308 | 0.271 |
| SK-LU-1 | 0.991 | 0.863 | 0.817 | 0.363 | 0.282 | 0.338 | 0.417 | 0.366 | 0.272 | 0.206 | 0.99 | 1.03 | 0.67 | 0.413 | 0.264 | 0.897 | 1.01 | 0.909 | 0.588 | 0.411 |
| SK-MES-1 | 0.912 | 1.02 | 0.844 | 0.708 | 0.256 | 0.506 | 0.588 | 0.57 | 0.262 | 0.16 | 0.978 | 1.06 | 0.9 | 0.587 | 0.258 | 0.861 | 0.885 | 0.77 | 0.371 | 0.262 |
| SW 900 | 0.419 | 0.543 | 0.522 | 0.47 | 0.204 | 0.428 | 0.336 | 0.425 | 0.15 | 0.134 | 0.778 | 0.809 | 0.729 | 0.524 | 0.224 | 0.697 | 0.816 | 0.6 | 0.21 | 0.205 |
| SW 1573 | 0.877 | 0.785 | 0.397 | 0.259 | 0.148 | 0.566 | 0.407 | 0.382 | 0.258 | 0.169 | 0.968 | 0.986 | 0.635 | 0.309 | 0.167 | 0.743 | 0.705 | 0.677 | 0.396 | 0.286 |
